Measured values as given in patent US20230340011A1 (Asteroid Therapeutics, priority 2022, published 2023).
pEC50, pIC50: −log10 of the molar value.

Legend:
SREBP-2 = SREBP-2 (Homo sapiens (Human), UniProt Q12772); experiment: In vitro assay SREBP-2: PathHunter U2OS SREBP-2 Nuclear Translocation Cell Line, U18666A-stimulated; type: cell-based; settings: PathHunter U2OS SREBP-2 nuclear translocation cells, U18666A 10 μM, overnight (16 hours)
LXRβ = LXRβ (Homo sapiens (Human), UniProt P55055); experiment: In vitro assay LXRβ: PathHunter NHR CHO cells, LXRβ / Steroid Receptor Co-activator Peptide enzyme fragment complementation; type: cell-based; settings: PathHunter NHR CHO cells, full-length human LXRβ and SRCP, chemiluminescent signal; read-out: LXRβ PPI
Sequence of LXRβ (P55055 whole entry, the tested form may be a part): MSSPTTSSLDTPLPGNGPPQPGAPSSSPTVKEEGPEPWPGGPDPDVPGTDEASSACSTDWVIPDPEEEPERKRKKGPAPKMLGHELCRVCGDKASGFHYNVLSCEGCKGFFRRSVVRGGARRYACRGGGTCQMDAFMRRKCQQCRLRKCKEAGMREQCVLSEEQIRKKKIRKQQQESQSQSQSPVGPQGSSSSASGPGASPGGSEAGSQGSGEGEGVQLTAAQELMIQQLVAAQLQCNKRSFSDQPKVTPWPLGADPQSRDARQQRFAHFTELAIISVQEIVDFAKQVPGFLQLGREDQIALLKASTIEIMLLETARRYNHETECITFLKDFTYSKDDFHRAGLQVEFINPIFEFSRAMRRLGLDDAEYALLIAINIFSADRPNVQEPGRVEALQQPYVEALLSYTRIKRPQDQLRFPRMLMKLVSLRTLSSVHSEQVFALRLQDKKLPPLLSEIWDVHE
Procedure, shortened: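 Co-activator recruitment measured by chemiluminescence after signal generation. The CHO line carries full-length human LXRβ tagged with ProLink and an SRCP–enzyme acceptor fusion in the nucleus; cells sat overnight at 37° C before testing, in charcoal-dextran filtered serum medium with 1% final vehicle.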

Compound | pIC50 (SREBP-2) | pEC50 (LXRβ)
CNC(=O)c1ccc(OC[C@@H](C)[C@H]2CC[C@H]3[C@@H]4CC=C5C[C@@H](O)CC[C@]5(C)[C@H]4CC[C@]23C)nc1 [Example 255, 6-((S)-2-((3S,8S,9S,10R,13S,14S,17R)-3-hydroxy-10,13-dimethyl-2,3,4,7,8,9,10,11,12,13,14,15,16,17-tetradecahydro-1H-cyclopenta[a]phenanthren-17-yl)propoxy)-N-methylnicotinamide] | > 6.60 | < 5.00
C[C@H]1CCCN(C(=O)CC[C@@H](C)[C@H]2CC[C@H]3[C@@H]4CC=C5C[C@@H](O)CC[C@]5(C)[C@H]4CC[C@]23C)C1 [Example 110, (R)-4-((3S,8S,9S,10R,13R,14S,17R)-3-hydroxy-10,13-dimethyl-2,3,4,7,8,9,10,11,12,13,14,15,16,17-tetradecahydro-1H-cyclopenta[a]phenanthren-17-yl)-1-((S)-3-methylpiperidin-1-yl) pentan-1-one] | > 6.60 | 5.00 to 6.00
C[C@H](CCC(=O)N1CCC(N(C)C(=O)c2ccncc2)CC1)[C@H]1CC[C@H]2[C@@H]3CC=C4C[C@@H](O)CC[C@]4(C)[C@H]3CC[C@]12C [Example 416, N-(1-((R)-4-((3S,8S,9S,10R,13R,14S,17R)-3-hydroxy-10,13-dimethyl-2,3,4,7,8,9,10,11,12,13,14,15,16,17-tetradecahydro-1H-cyclopenta[a]phenanthren-17-yl)pentanoyl)piperidin-4-yl)-N-methylisonicotinamide] | > 6.60 | < 5.00
C[C@H](CCC(=O)N1CCNS(=O)(=O)CC1)[C@H]1CC[C@H]2[C@@H]3CC=C4C[C@@H](O)CC[C@]4(C)[C@H]3CC[C@]12C [Example 354, 5-[(4R)-4-[(1R,3aS,3bS,7S,9aR,9bS,11aR)-7-hydroxy-9a,11a-dimethyl-1H,2H,3H,3aH,3bH,4H,6H,7H,8H,9H,9aH,9bH,10H,11H,11aH-cyclopenta[a]phenanthren-1-yl]pentanoyl]-1λ^6,2,5-thiadiazepane-1,1-dione] | > 6.60 | < 5.00
C[C@H](CCC(=O)N1CCN(c2ncncc2O)CC1)[C@H]1CC[C@H]2[C@@H]3CC=C4C[C@@H](O)CC[C@]4(C)[C@H]3CC[C@]12C [Example 630, (R)-4-((3S,8S,9S,10R,13R,14S,17R)-3-hydroxy-10,13-dimethyl-2,3,4,7,8,9,10,11,12,13,14,15,16,17-tetradecahydro-1H-cyclopenta[a]phenanthren-17-yl)-1-(4-(5-hydroxypyrimidin-4-yl)piperazin-1-yl)pentan-1-one] | > 6.60 | < 5.00
C[C@H](CCC(=O)N1CCC(C(O)(C(F)(F)F)C(F)(F)F)CC1)[C@H]1CC[C@H]2[C@@H]3CC=C4C[C@@H](O)CC[C@]4(C)[C@H]3CC[C@]12C [Example 99, (R)-1-(4-(1,1,1,3,3,3-hexafluoro-2-hydroxypropan-2-yl)piperidin-1-yl)-4-((3S,8S,9S,10R,13R,14S,17R)-3-hydroxy-10,13-dimethyl-2,3,4,7,8,9,10,11,12,13,14,15,16,17-tetradecahydro-1H-cyclopenta[a]phenanthren-17-yl)pentan-1-one] | > 6.60 | < 5.00
C[C@H](CCc1cccnc1)[C@H]1CC[C@H]2[C@@H]3CC=C4C[C@@H](O)CC[C@]4(C)[C@H]3CC[C@]12C [Example 159, (3S,8S,9S,10R,13R,14S,17R)-10,13-dimethyl-17-((R)-4-(pyridin-3-yl)butan-2-yl)-2,3,4,7,8,9,10,11,12,13,14,15,16,17-tetradecahydro-1H-cyclopenta[a]phenanthren-3-ol] | > 6.60 | < 5.00
C[C@H](CCC(=O)N1CCC[C@@H](O)C1)[C@H]1CC[C@H]2[C@@H]3CC=C4C[C@@H](O)CC[C@]4(C)[C@H]3CC[C@]12C [Example 104, (R)-4-((3S,8S,9S,10R,13R,14S,17R)-3-hydroxy-10,13-dimethyl-2,3,4,7,8,9,10,11,12,13,14,15,16,17-tetradecahydro-1H-cyclopenta[a]phenanthren-17-yl)-1-((R)-3-hydroxypiperidin-1-yl) pentan-1-one] | > 6.60 | 6.00 to 6.60
C[C@H](CCC(=O)N1CCN(C(=O)c2ccn(C)n2)CC1)[C@H]1CC[C@H]2[C@@H]3CC=C4C[C@@H](O)CC[C@]4(C)[C@H]3CC[C@]12C [Example 539, (4R)-4-[(1R,3aS,3bS,7S,9aR,9bS,11aR)-7-hydroxy-9a,11a-dimethyl-1H,2H,3H,3aH,3bH,4H,6H,7H,8H,9H,9aH,9bH,10H,11H,11aH-cyclopenta[a]phenanthren-1-yl]-1-[4-(1-methyl-1H-pyrazole-3-carbonyl)piperazin-1-yl]pentan-1-one] | > 6.60 | < 5.00
C[C@H](CCC(=O)N1CCN(C(=O)c2ncnn2C)CC1)[C@H]1CC[C@H]2[C@@H]3CC=C4C[C@@H](O)CC[C@]4(C)[C@H]3CC[C@]12C [Example 382, (R)-4-((3S,8S,9S,10R,13R,14S,17R)-3-hydroxy-10,13-dimethyl-2,3,4,7,8,9,10,11,12,13,14,15,16,17-tetradecahydro-1H-cyclopenta[a]phenanthren-17-yl)-1-(4-(1-methyl-1H-1,2,4-triazole-5-carbonyl)piperazin-1-yl)pentan-1-one] | > 6.60 | < 5.00
CNC(=O)OC[C@@H](C)[C@H]1CC[C@H]2[C@@H]3CC=C4C[C@@H](O)CC[C@]4(C)[C@H]3CC[C@]12C [Example 351, (S)-2-((3S,8S,9S,10R,13S,14S,17R)-3-hydroxy-10,13-dimethyl-2,3,4,7,8,9,10,11,12,13,14,15,16,17-tetradecahydro-1H-cyclopenta[a]phenanthren-17-yl)propyl methylcarbamate] | > 6.60 | < 5.00
CCc1cccc(CC[C@@H](C)[C@H]2CC[C@H]3[C@@H]4CC=C5C[C@@H](O)CC[C@]5(C)[C@H]4CC[C@]23C)n1 [Example 167, (3S,8S,9S,10R,13R,14S,17R)-17-((R)-4-(6-ethylpyridin-2-yl)butan-2-yl)-10,13-dimethyl-2,3,4,7,8,9,10,11,12,13,14,15,16,17-tetradecahydro-1H-cyclopenta[a]phenanthren-3-ol] | 6.00 to 6.60 | < 5.00
COc1cccnc1N1CCN(C(=O)CC[C@@H](C)[C@H]2CC[C@H]3[C@@H]4CC=C5C[C@@H](O)CC[C@]5(C)[C@H]4CC[C@]23C)CC1 [Example 613, (R)-4-((3S,8S,9S,10R,13R,14S,17R)-3-hydroxy-10,13-dimethyl-2,3,4,7,8,9,10,11,12,13,14,15,16,17-tetradecahydro-1H-cyclopenta[a]phenanthren-17-yl)-1-(4-(3-methoxypyridin-2-yl)piperazin-1-yl)pentan-1-one] | > 6.60 | < 5.00
C=CCN1C[C@@H]2CCN(C(=O)CC[C@@H](C)[C@H]3CC[C@H]4[C@@H]5CC=C6C[C@@H](O)CC[C@]6(C)[C@H]5CC[C@]34C)[C@@H]2C1 [Example 139, (R)-1-((3aS,6aS)-5-allylhexahydropyrrolo[3,4-b]pyrrol-1(2H)-yl)-4-((3S,8S,9S,10R,13R,14S,17R)-3-hydroxy-10,13-dimethyl-2,3,4,7,8,9,10,11,12,13,14,15,16,17-tetradecahydro-1H-cyclopenta[a]phenanthren-17-yl)pentan-1-one] | 6.00 to 6.60 | < 5.00
